In patent US10662407B2, “Method for controlling differentiation of embryonic stem cells into adipocytes or kidney precursor cells by regulating SIRT1 expression” (INDUSTRIAL COOPERATION FOUNDATION CHONBUK NATIONAL …, priority 2015, dated 2020):

Experiments:
[1] = tested on: Six2 mRNA expression; assay: Quantitative PCR of Six2 mRNA during differentiation of embryonic stem cells into kidney precursor cells; assay type: cell-based, mouse; details: for mRNA expression level of Six2: embryonic stem cells, EX527 5-10 uM, resveratrol 10-20 uM, FIG. 7B
Method: (§1) The cell culture media, from which Leukemia Inhibitory Factor (LIF; Milipore, USA) was removed, were treated with 100 nmol/L Retinoic acid and 10 ng/mL Activin A, and then mRNA expression levels of Six2 and WT1, kidney precursor cells, were measured. In the process of induction into kidney precursor cells, embryonic stem cells were inoculated into wells of a 6-well plate to be cultured therein.
(§2) The media for differentiation into kidney precursor cells were cultured by adding 2 mM Gluta MAX™ (Gibco, USA), 1× Non-essential aminoacid, (1×NEAA; Gibco, USA), 0.1 mM beta-mercaptoethanol (Invitrogen, USA) and […] to DMEM.
(§3) In the step for differentiation of embryonic stem cells into kidney precursor cells, mRNA expression levels of Six2 and WT1, indicators of kidney precursor cells, were measured by a PCR method. Each primer used in the PCR method was as represented in Table 2 and was manufactured by Bioneer (Korea). GAPDH was used as a control group for the reliability of the PCR method.
(§4) In the same manner as in Example 6, differentiation of embryonic stem cells into kidney precursor cells was induced, each cell was harvested on day 11 of differentiation induction and then total RNAs were extracted using TRIzol reagent (Life Technology, USA). The extracted RNAs were synthesized into cDNAs using a cDNA synthesis kit (Roche, Germany) and a PCR method was carried out using the primers represented in Table 2.
(§5) In order to confirm the differentiation of embryonic stem cells into kidney precursor cells according to the inhibition or promotion of SIRT1 protein expression, the differentiation of the embryonic stem cells (SIRT1+/+; WT) expressing the SIRT1 genes, which were prepared in Example 1, into kidney precursor cells was confirmed. The differentiation was confirmed by protein expression levels of Six2 and WT1, indicators of kidney precursor cells.
(§6) In the step for differentiation of embryonic stem cells into kidney precursor cells, mRNA expression levels of Six2 and WT1, indicators of kidney precursor cells, were measured by a quantitative PCR method.

[2] = tested on: WT1 mRNA expression; assay: Quantitative PCR of WT1 mRNA during differentiation of embryonic stem cells into kidney precursor cells; assay type: cell-based, mouse; details: for mRNA expression level of WT1: embryonic stem cells, EX527 5-10 uM, resveratrol 10-20 uM, FIG. 7A
Method: as §1, §2, §3, §4, §5, §6

[3] = tested on: mouse embryonic stem cells (SIRT1+/+; WT), differentiation into adipocytes; assay: Oil Red O staining of embryonic stem cells differentiated into adipocytes; assay type: cell-based; details: for differentiation into adipocytes versus group without inhibitor (Oil Red O): EX527 10 μM, FIG. 4
Method: In the present disclosure, in order to determine whether differentiation of embryonic stem cells into adipocytes was affected by the presence or absence of SIRT1 protein expression, degrees of differentiation of the embryonic stem cells (SIRT1+/+; WT) expressing the SIRT1 genes and the mouse embryonic stem cells lacking SIRT1 genes (SIRT1−/−; KO), prepared in Example 1, were determined, and when EX527 (10 μM, Tocris, UK), SIRT1 inhibitor, was treated with SIRT1+/+ embryonic stem cells, the degree of lipid differentiation according to SITRT1 inhibition was determined.
In the hanging-drop culture, 1000 embryonic stem cells were added into 20 μl to prepare a single embryoid body, the process of induction into adipocytes was cultured by inoculating 15 cultures into each well using a 6-well plate.
The medium for differentiation into adipocyte was prepared by adding 85 nM insulin (Sigma, USA), 2 nM triiodothyronine (Sigma, USA) and 2 μM rosiglitazone (Sigma, USA) to DMEM and embryoid bodies were cultured, the medium exchange was performed daily.
In addition, SIRT1 inhibitor EX527 was added to SIRT1+/+ embryonic stem cells until the early 5th day of differentiation into adipocytes.
Oil Red O staining was performed to determine whether the differentiation into adipocytes was successfully performed in mouse embryonic stem cells differentiated for 21 days in Example 2.
First, SIRT1+/+ cells, SIRT1−/− cells, and SIRT1+/+ cells differentiated by treatment with SIRT1 inhibitor were treated with 10% formaldehyde to fix the cells, the formaldehyde was washed with phosphate buffered saline three times and then was treated with 60% isopropanol. Then, 2 ml Oil Red O staining solution was added and the mixture was stained at room temperature for 30 minutes in the dark, and then was washed with phosphate buffered saline three times.
Oil Red O staining was performed on the lipid droplets in the differentiated adipocytes. After staining, the cells were observed using a microscope to identify red-stained fat adipocytes.
When the observation was completed, stained dye in adipocyte was extracted using 1 ml isopropanol per well and optical density (OD) was measured at 500 nm with an ELISA reader. The Oil Red O staining solution is a solution of 500 mg of Oil Red O dye (Sigma, USA) in 100 ml isopropanol, mixed with distilled water at a ratio of 6:4 and filtered using a 0.45 μm filter.
In the same manner as in Example 2, differentiation of embryonic stem cells into adipocytes was induced. The samples were divided into various groups: a group treated for 0 to 5 days at the early stage of differentiation, a group treated for 7 to 21 days at the latter stage of differentiation, and a group treated for 0 to 21 days during the entire differentiation period, which were treated with the SIRT1 inhibitor.

[4] = tested on: PPARγ mRNA expression; assay: PCR of PPARγ mRNA during adipocyte differentiation of embryonic stem cells; assay type: cell-based, mouse; details: SIRT1+/+ cells treated with EX527 10 μM, harvested 7 and 10 days after induction, FIG. 3
Method: (§7) In the present disclosure, in order to confirm the mechanism of regulating the differentiation of embryonic stem cells into adipocytes by SIRT1, in the step of differentiating into adipocytes, mRNA expression levels of peroxisome proliferator-activated receptors-γ (PPARγ), CCAAT/enhancer-binding protein-α (C/EBP α) and fatty acid binding protein 4 (FABP4) in adipocytes were measured by a PCR method. Each primer used in the PCR method was as represented in Table 1 and was manufactured by Bioneer (Korea). GAPDH was used as a control group for the reliability of the PCR method.
as §4, with “2,” for “6,”, “adipocytes” for “kidney precursor cells”, “7 and 10 days after induction” for “day 11”, “lipid differentiation,” for “differentiation induction”, “and” for “and then”, “1.” for “2.”

[5] = tested on: C/EBP α mRNA expression; assay: PCR of C/EBP α mRNA during adipocyte differentiation of embryonic stem cells; assay type: cell-based, mouse; details: SIRT1+/+ cells treated with EX527 10 μM, harvested 7 and 10 days after induction, FIG. 3
Method: as §7
as §4, with “2,” for “6,”, “adipocytes” for “kidney precursor cells”, “7 and 10 days after induction” for “day 11”, “lipid differentiation,” for “differentiation induction”, “and” for “and then”, “1.” for “2.”

[6] = tested on: FABP4 mRNA expression; assay: PCR of FABP4 mRNA during adipocyte differentiation of embryonic stem cells; assay type: cell-based, mouse; details: SIRT1+/+ cells treated with EX527 10 μM, harvested 7 and 10 days after induction, FIG. 3
Method: as §7
as §4, with “2,” for “6,”, “adipocytes” for “kidney precursor cells”, “7 and 10 days after induction” for “day 11”, “lipid differentiation,” for “differentiation induction”, “and” for “and then”, “1.” for “2.”

| SMILES | mRNA expression level of Six2 [1] | expression of Six2 compared with control ([1]; resveratrol 20 μM) | mRNA expression level of WT1 [2] | expression of WT1 compared with control ([2]; resveratrol 20 μM) | differentiation into adipocytes versus group without inhibitor (Oil Red O) ([3]; treated 0 to 5 days, early stage of differentiation) | differentiation into adipocytes versus group without inhibitor (Oil Red O) ([3]; treated 0 to 21 days, entire differentiation period) | differentiation into adipocytes versus group without inhibitor (Oil Red O) ([3]; treated 7 to 21 days, latter stage of differentiation) | adipocyte differentiation (lipid droplets, Oil Red O staining, microscope) versus SIRT1+/+ cells ([3]; SIRT1+/+ cells, EX527 10 μM until early 5th day of differentiation, 21 days differentiation, FIG. 2A) | reduction of adipocyte differentiation (absorbance at 500 nm of extracted Oil Red O) ([3]; SIRT1+/+ cells, EX527 10 μM until early 5th day, compared to SIRT1+/+ cells, FIG. 2B) | mRNA expression of PPARγ [4] | mRNA expression of C/EBP α [5] | mRNA expression of FABP4 [6] | mRNA expression level of Six2 ([1]; listed as SIRT1 inhibitor) | mRNA expression level of WT1 ([2]; listed as SIRT1 inhibitor) |
| --- | --- | --- | --- | --- | --- | --- | --- | --- | --- | --- | --- | --- | --- | --- |
| Oc1ccc(C=Cc2cc(O)cc(O)c2)cc1 [resveratrol] | significantly increased | significantly promoted | significantly increased | significantly promoted | – | – | – | – | – | – | – | – | – | – |
| NC(=O)C1CCCc2c1[nH]c1ccc(Cl)cc21 (stereo not shown) [EX527, 6-Chloro-2,3,4,9-tetrahydro-1H-Carbazole-1-carboxamide] | significantly decreased | – | significantly decreased | – | decrease in differentiation into adipocytes | not significantly different | more differentiated into adipocytes | remarkably lower | about 38% | significantly decreased | significantly decreased | significantly decreased | decreased | decreased |
